Test results: patent US11980774B2, “Illumination devices and related methods for phototherapeutic light treatments in the presence of vitamins” (priority 2021, dated 2024)

System: New York variant of SARS-CoV-2 (SARS-CoV-2 NY)
Experiment: 425 nm light inhibition of SARS-CoV-2 NY in the presence of riboflavin in artificial saliva, virus titer
Assay type: cell-based
Conditions: FIG. 2

Q: Which results are given for Cc1cc2nc3c(=O)[nH]c(=O)nc-3n(C[C@H](O)[C@H](O)[C@H](O)CO)c2cc1C [riboflavin]?
A: change in SARS-CoV-2 NY viral load compared with the 0 μM RFN sample (10 μM RFN in artificial saliva, 425 nm light, beginning with doses as low as 3 J/cm^2): notable decreases; viral load of SARS-CoV-2 NY after treatment (10 μM RFN, 425 nm light 15 J/cm^2): below measurement background levels
